{
  "source": "patent US4689326A",
  "about": "“Process for controlling hyperlipidemia” (Research Corporation, priority 1985, dated 1987)",
  "key": {"[1]": {"test_system": "serum triglycerides", "assay": "Testing of Normal Rats: serum triglycerides, Example 8", "type": "in vivo, Sprague Dawley male rats", "details": "oral 20 mg/kg/day", "description": "In Example 8 a set of six Sprague Dawley male rats, each weighing approximately 350 grams, were orally treated with a concentration of 20 mg per kilogram of rat weight per day, again suspended in a 1% aqueous solution of CMC. The dosage was applied orally by an intubation needle. On days 9 and 16 serum cholesterol and serum triglycerides blood levels of the rats were measured utilizing th procedure of Example 7.\nA control group of six similar Sprague Dawley male rats were untreated but tested on Days 9 and 16 in accordance with the tests administered to the treated rats. Table 6 reports the percent control based on the decrease in serum cholesterol and serum triglycerides of the treated rats compared to the levels measured in the untreated control group."}, "[2]": {"biological_target": "T1, Acetyl CoA Carboxylase (Mus musculus, UniProt Q5SWU9)", "T1 construct": "10% homogenates of CF1 male mouse liver; from tissue; host or cells: CF1 male mouse liver, 10% homogenate", "assay": "In vitro enzyme activity, liver homogenate: acetyl CoA carboxylase", "type": "biochemical, CF1 male mouse", "details": "± SD, N = 6, read-out: Percent Control, in vitro enzyme activity", "description": "(§1) In vitro enzymatic studies were undertaken using 10% homogenates of CF1 male mouse liver with […] of compound 3,4,5,6-dibenzohomopiperidine. In addition, in vivo enzymatic studies were performed, again using 10% liver homogenates (prepared in 0.25 M sucrose plus 0.001 M (ethylenedinitrilo)-tetraacetic acid, ph 7.25 from CF1 male mice obtained after administering 3,4,5,6-dibenzohomopiperidine for 16 days at a concentration ranging from 10 to 60 mg/kg/day, intraperitoneally.\n(§2) The following enzyme activities were determined by following standard literature procedures: acetyl coenzyme synthetase; adenosine triphosphate dependent citrate lyase; mitochondrial citrate exchange; cholesterol/7 hydroxylase; 3-hydroxy-3-methyl-glutaryl coenzyme A reductase; acetyl coenzyme A carboxylase activity; fatty acid synthetase activity; sn-glycerol-3-phosphate acyl transferase activity; phosphatidate phosphohydrolase activity; cholesterol acyl transferase; and heparin activated hepatic lypoprotein lipase. Protein was determined for all enzyme assays by the Lowry et al. technique (J. Biol. Chem, 193, 265 (1951))."}, "[3]": {"test_system": "HMG CoA Reductase", "assay": "In vivo enzyme activity, liver of treated mice: HMG CoA reductase", "design": "species or system CF1 male mice", "details": "16 days, ± SD", "description": "as §1, §2"}, "[4]": {"test_system": "Fatty Acid Synthetase", "assay": "In vivo enzyme activity, liver of treated mice: fatty acid synthetase", "design": "species or system CF1 male mice", "details": "16 days, ± SD", "description": "as §1, §2"}, "[5]": {"test_system": "Liver", "assay": "Lipid Extraction Studies in Rats, Example 11: liver", "type": "in vivo, Sprague Dawley male rats", "details": "oral 20 mg/kg/day, fourteen days, ± SD"}, "[6]": {"test_system": "Small Intestine", "assay": "Lipid Extraction Studies in Rats, Example 11: small intestine", "type": "in vivo, Sprague Dawley male rats", "details": "oral 20 mg/kg/day, fourteen days, ± SD"}, "[7]": {"test_system": "Chylomicrons", "assay": "Lipoprotein fractions in Rats, Example 11: chylomicrons", "type": "in vivo, Sprague Dawley male rats", "details": "oral 20 mg/kg/day, fourteen days, ± SD", "description": "(§3) A group of six Sprague Dawley male rats were treated with 20 mg/kg/day of 3,4,5,6-dibenzohomopiperidine. The treatment was applied orally. An equal number of Sprague Dawley male rats, having approximately the same weight, were utilized as an untreated control. At the end of fourteen days the control and treated rats were sacrificed. Blood was collected from the abdominal aorta and lipoprotein fractions were obtained by the method of Hatch and Lees [Adv. Lipid Rees., 6, 1 (1968)] and Havel et al. [J. Clin Invest., 34, 1345 (1955)]. Each of the fractions were analyzed for cholesterol, triglycerides, neutral lipids, phospholipids and protein levels."}, "[8]": {"test_system": "VLDL", "assay": "Lipoprotein fractions in Rats, Example 11: VLDL", "type": "in vivo, Sprague Dawley male rats", "details": "oral 20 mg/kg/day, fourteen days, ± SD", "description": "as §3"}, "[9]": {"test_system": "LDL", "assay": "Lipoprotein fractions in Rats, Example 11: LDL", "type": "in vivo, Sprague Dawley male rats", "details": "oral 20 mg/kg/day, fourteen days, ± SD", "description": "as §3"}, "[10]": {"test_system": "serum cholesterol", "assay": "Testing of Normal Mice: serum cholesterol (modified Liebermann-Burchard), Example 7", "type": "in vivo, CF1 male mice", "details": "Mus musculus; for response vs control in vivo at 10 mg/kg: 10 mg/kg/day ip; for response vs control in vivo at 40 mg/kg: 40 mg/kg/day ip; for response vs control in vivo at 60 mg/kg: 60 mg/kg/day ip"}, "[11]": {"test_system": "serum triglycerides", "assay": "Testing of Normal Mice: serum triglycerides (BioDynamics kit), Example 7", "type": "in vivo, CF1 male mice", "details": "Mus musculus, 384 h, day 16, ± SD"}, "[12]": {"details": "216 h, day 9, ± SD, read-out: Serum Cholesterol Control, % Day 9"}, "[13]": {"details": "384 h, day 16, ± SD, read-out: Serum Cholesterol Control, % Day 16"}},
  "note": "Like-named read-outs stand apart in the source and are kept apart here.",
  "data": [
    {"compound": "c1ccc2c(c1)CNCc1ccccc1-2", "note": "[Compound 3, 3,4,5,6-dibenzohomopiperidine]", "values": [
      {"measurement": "% Control Serum Triglycerides Day 9", "setting": "[1]; day 9", "result": 54, "unit": "%"},
      {"measurement": "% Control Serum Triglycerides Day 16", "setting": "[1]; day 16", "result": 54, "unit": "%"},
      {"measurement": "remaining activity at 50 µM", "setting": "[2]; 50 μM", "result": "84 ± 6", "unit": "%"},
      {"measurement": "remaining activity at 100 µM", "setting": "[2]; 100 μM", "result": "100 ± 7", "unit": "%"},
      {"measurement": "remaining activity at 200 µM", "setting": "[2]; 200 μM", "result": "99 ± 5", "unit": "%"},
      {"measurement": "Percent Control, in vivo enzyme activity", "setting": "[3]; 10 mg/kg/day ip", "result": "123 ± 5", "unit": "%"},
      {"measurement": "Percent Control, in vivo enzyme activity", "setting": "[3]; 20 mg/kg/day ip", "result": "133 ± 9", "unit": "%"},
      {"measurement": "Percent Control, in vivo enzyme activity", "setting": "[3]; 40 mg/kg/day ip", "result": "146 ± 7", "unit": "%"},
      {"measurement": "Percent Control, in vivo enzyme activity", "setting": "[3]; 60 mg/kg/day ip", "result": "124 ± 6", "unit": "%"},
      {"measurement": "Percent Control, in vivo enzyme activity", "setting": "[4]; 10 mg/kg/day ip", "result": "100 ± 8", "unit": "%"},
      {"measurement": "Percent Control, in vivo enzyme activity", "setting": "[4]; 20 mg/kg/day ip", "result": "114 ± 6", "unit": "%"},
      {"measurement": "Percent Control, in vivo enzyme activity", "setting": "[4]; 40 mg/kg/day ip", "result": "106 ± 7", "unit": "%"},
      {"measurement": "Percent Control, in vivo enzyme activity", "setting": "[4]; 60 mg/kg/day ip", "result": "110 ± 8", "unit": "%"},
      {"measurement": "Cholesterol, concentration as a function of control", "setting": "[5]", "result": "65 ± 5", "unit": "%"},
      {"measurement": "Mg Lipid Wt, concentration as a function of control", "setting": "[5]", "result": "89 ± 7", "unit": "%"},
      {"measurement": "Neutral Lipids, concentration as a function of control", "setting": "[5]", "result": "80 ± 5", "unit": "%"},
      {"measurement": "Phospholipids, concentration as a function of control", "setting": "[5]", "result": "98 ± 9", "unit": "%"},
      {"measurement": "Protein, concentration as a function of control", "setting": "[5]", "result": "97 ± 7", "unit": "%"},
      {"measurement": "Triglycerides, concentration as a function of control", "setting": "[5]", "result": "76 ± 6", "unit": "%"},
      {"measurement": "Cholesterol, concentration as a function of control", "setting": "[6]", "result": "130 ± 6", "unit": "%"},
      {"measurement": "Mg Lipid Wt, concentration as a function of control", "setting": "[6]", "result": "143 ± 5", "unit": "%"},
      {"measurement": "Neutral Lipids, concentration as a function of control", "setting": "[6]", "result": "149 ± 6", "unit": "%"},
      {"measurement": "Phospholipids, concentration as a function of control", "setting": "[6]", "result": "119 ± 6", "unit": "%"},
      {"measurement": "Protein, concentration as a function of control", "setting": "[6]", "result": "118 ± 7", "unit": "%"},
      {"measurement": "Triglycerides, concentration as a function of control", "setting": "[6]", "result": "130 ± 6", "unit": "%"},
      {"measurement": "Cholesterol, concentration as a function of control", "setting": "[7]", "result": "77 ± 6", "unit": "%"},
      {"measurement": "Neutral Lipids, concentration as a function of control", "setting": "[7]", "result": "69 ± 7", "unit": "%"},
      {"measurement": "Phospholipids, concentration as a function of control", "setting": "[7]", "result": "65 ± 5", "unit": "%"},
      {"measurement": "Protein, concentration as a function of control", "setting": "[7]", "result": "106 ± 6", "unit": "%"},
      {"measurement": "Triglycerides, concentration as a function of control", "setting": "[7]", "result": "69 ± 6", "unit": "%"},
      {"measurement": "Cholesterol, concentration as a function of control", "setting": "[8]", "result": "40 ± 4", "unit": "%"},
      {"measurement": "Neutral Lipids, concentration as a function of control", "setting": "[8]", "result": "63 ± 6", "unit": "%"},
      {"measurement": "Phospholipids, concentration as a function of control", "setting": "[8]", "result": "95 ± 7", "unit": "%"},
      {"measurement": "Protein, concentration as a function of control", "setting": "[8]", "result": "96 ± 8", "unit": "%"},
      {"measurement": "Triglycerides, concentration as a function of control", "setting": "[8]", "result": "69 ± 5", "unit": "%"},
      {"measurement": "Cholesterol, concentration as a function of control", "setting": "[9]", "result": "82 ± 8", "unit": "%"},
      {"measurement": "Neutral Lipids, concentration as a function of control", "setting": "[9]", "result": "107 ± 9", "unit": "%"},
      {"measurement": "Phospholipids, concentration as a function of control", "setting": "[9]", "result": "94 ± 10", "unit": "%"},
      {"measurement": "Protein, concentration as a function of control", "setting": "[9]", "result": "108 ± 9", "unit": "%"},
      {"measurement": "Triglycerides, concentration as a function of control", "setting": "[9]", "result": "73 ± 6", "unit": "%"},
      {"measurement": "response vs control in vivo at 10 mg/kg", "setting": "[10]; [12]", "result": "61 ± 5", "unit": "%"},
      {"measurement": "response vs control in vivo at 40 mg/kg", "setting": "[10]; [12]", "result": "67 ± 6", "unit": "%"},
      {"measurement": "response vs control in vivo at 60 mg/kg", "setting": "[10]; [12]", "result": "69 ± 5", "unit": "%"},
      {"measurement": "response vs control in vivo at 10 mg/kg", "setting": "[10]; [13]", "result": "50 ± 5", "unit": "%"},
      {"measurement": "response vs control in vivo at 40 mg/kg", "setting": "[10]; [13]", "result": "54 ± 4", "unit": "%"},
      {"measurement": "response vs control in vivo at 60 mg/kg", "setting": "[10]; [13]", "result": "51 ± 4", "unit": "%"},
      {"measurement": "response vs control in vivo at 10 mg/kg", "setting": "[11]; 10 mg/kg/day ip", "result": "48 ± 5", "unit": "%"},
      {"measurement": "response vs control in vivo at 40 mg/kg", "setting": "[11]; 40 mg/kg/day ip", "result": "44 ± 6", "unit": "%"},
      {"measurement": "response vs control in vivo at 60 mg/kg", "setting": "[11]; 60 mg/kg/day ip", "result": "55 ± 6", "unit": "%"}
    ]}
  ]
}
